Results as given in patent US7834024B2, “Compositions and methods for inhibition of the JAK pathway” (Rigel Pharmaceuticals, Inc., priority 2007, dated 2010).
Like-named read-outs stand apart in the source and are kept apart here.

Experiments:
[1] = system: Ramos B-Cell Line Stimulated with IL-4 (JAK-1 and JAK-3 / Stat-6, CD23); test: Assay for Ramos B-Cell Line Stimulated with IL-4 (CD23 upregulation, FACS); format: cell-based; settings: human Ramos B cells, compound 1 hour, IL-4 50 units/mL for 20-24 hours, anti-CD23-PE FACS, read-out: Example 2 (IC50)
Summary of the method: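 Human Ramos B cells (5×10^4 per point, RPMI with 5% serum) pre-incubated 1 hour at 37° C with compound or DMSO, then stimulated with IL-4 at 50 units/mL final for 20-24 hours. CD23 upregulation measured by flow cytometry.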

[2] = system: JAK2 (BaF3 V617F cells, UKE-1); test: Proliferation Assay (Cell Titer-Glo, 72 hours); format: cell-based; settings: proliferation 72 hours, BaF3 V617F or UKE-1 cells, cell line not given, read-out: Example 7 (IC50)
Experimental: • Dimethyl Sulfoxide (DMSO) (Sigma-Aldrich, Cat No. D2650) (Control) • Iscove's DMEM, ATCC Catalog #30-2005 • 1 M HEPES, Cellgro Catalog #25-060-Cl (100 mL) • 100 mM Sodium Pyruvate, Cellgro Catalog #25-000-Cl (100 mL) • Penicillin/Streptomycin, 10000 U/mL each, Cellgro Catalog #30-002-Cl (100 mL) • RPMI 1640 (Cellgro, Cat No. 10-040-CM) • Fetal Bovine Serum (JRH, Cat No. 12106-500M) • Donor Equine Serum, Hyclone Catalog #SH30074.02 (100 mL) • 50 μM hydrocortisone solution, Sigma Catalog #H6909-10 ml (10 mL) Culture Conditions
BaF3 V617F cells are maintained and plated in RPMI with 10% FBS. Plating density for these cells is 1×10^5 cells/mL.
UKE-1 are maintained and plated in Iscove's DMEM containing 10% FBS, 10% equine serum, 1% penicillin/streptomycin and 1 uM hydrocortisone. Plating density for these cells is 0.4×10^6 cells/mL
The cells were resuspended in a corresponding medium at a required cell density (see above). 100 μ of cell suspension was added to each well of a flat bottom 96 well white plate. The compound was serially diluted in DMSO from 5 mM in 3-fold dilutions, and then diluted 1:250 in the RPMI 1640 medium containing 5% FBS and pen/strep. 100 μL of resulting 2× compound solution was added per well in duplicate and the cells were allowed to proliferate for 72 hours at 37° C.
Proliferation was measured using Cell Titer-Glo. The substrate was thawed and allowed to come to room temperature. After removal of top 100 μL of medium from each well, 100 μL of the premixed Cell Titer-Glo reagent was added to each well. The plates were mixed on an orbital shaker for three minutes to induce lysis and incubated at ambient temperature for an additional five minutes to allow the signal to equilibrate. The Luminescence was read on the Wallac Plate Reader.
The results of the ability of the compounds of the invention to inhibit JAK2 activity, when tested in the above assay, are shown in the following Table IX wherein the level of activity (i.e. the IC50) for each compound is indicated in Table IX. Thae compound numbers in Table IX Refers to the compound disclosed herein as being preparded hy the methods disclosed herein: […]

| IC50 [1] [nM] | IC50 [2] [nM] | IC50 ([1]; Homo sapiens, Ramos) [nM] | Compound |
| --- | --- | --- | --- |
| 57.3 | 160 | – | CNC(=O)COc1cc(Nc2ncc(F)c(Nc3ccc4c(c3)NC(=O)C(C)(C)S4)n2)cc(OC)c1OC [II-17, N2-[4,5-Dimethoxy-3-(N-methylaminocarbonylmethyleneoxy)phenyl]-N4-(2,2-dimethyl-3-oxo-4H-benzo[1,4]thiazin-6-yl)-5-fluoro-2,4-pyrimidinediamine] |
| 25.1 | 653 | – | CNC(=O)COc1cc(Nc2ncc(F)c(Nc3ccc4c(c3)NC(=O)C(C)(C)O4)n2)cc(OC)c1OC [II-18, N2-[4,5-Dimethoxy-3-(N-methylaminocarbonylmethyleneoxy)phenyl]-N4-(2,2-dimethyl-3-oxo-benzo[1,4]oxazin-6-yl)-5-fluoro-2,4-pyrimidinediamine] |
| 89.6 | 1090 | – | CNC(=O)COc1cc(Nc2ncc(F)c(Nc3ccc4c(n3)NCC(C)(C)O4)n2)ccc1OC [II-32, N4-(3,4-Dihydro-2,2-dimethyl-2H-5-pyrido[1,4]oxazin-6-yl)-5-fluoro-N2-[4-methoxy-3-(N-methylaminocarbonylmethoxy)phenyl]-2,4-pyrimidinediamine] |
| 98 | 16400 | – | CNC(=O)COc1cccc(Nc2ncc(C)c(Nc3ccc4c(c3)NC(=O)C(F)(F)O4)n2)c1 [II-49, N4-(2,2-Difluoro-3-oxo[4H]benzo[1,4]oxazin-6-yl)-5-methyl-N2-[3-(N-Methylaminocarbonylmethyleneoxy)phenyl]-2,4-pyrimidinediamine] |
| – | 980 | 116 | Cc1cnc(Nc2cccc(C#N)c2)nc1Nc1ccc2c(c1)N(C)C(=O)CO2 [II-10, N2-(3-Cyanophenyl)-5-methyl-N4-(4-methyl-3-oxo-2H-benzo[1,4]oxazin-6-yl)-2,4-pyrimidinediamine] |
| – | 68300 | 69.7 | Cc1cnc(Nc2cccc(C#N)c2)nc1Nc1ccc2c(c1)NC(=O)CO2 [II-6, N2-(3-Cyanophenyl)-5-methyl-N4-(3-oxo-2H,4H-benzo[1,4]oxazin-6-yl)-2,4-pyrimidinediamine] |
| – | 4120 | 748 | CN1C(=O)C(C)(C)Oc2ccc(Nc3nc(Nc4ccc5c(c4)C(=O)NCC5)ncc3F)nc21 [IV-2, 5-Fluoro-N2-(1-oxo-1,2,3,4-tetrahydroisoquinolin-7-yl)-N4-[3-oxo-2,2,4-trimethyl-5-pyrido[1,4]oxazin-6-yl]-2,4-pyrimidinediamine] |
| 129 | 2070 | – | Cc1cnc(Nc2cccc(C(N)=O)c2)nc1Nc1ccc2c(c1)N(C)C(=O)CS2 [II-41, N2-(3-Aminocarbonylphenyl)-N4-(3,4-dihydro-2H-4-methyl-3-oxo-benz[1,4]thiazin-6-yl)-5-methyl-2,4-pyrimidinediamine] |
| 56.4 | 223 | – | CNC(=O)COc1cccc(Nc2ncc(C)c(Nc3ccc4c(c3)N(C)C(=O)CS4)n2)c1 [II-8, 5-Methyl-N2-[3-(N-methylaminocarbonylmethyleneoxy)phenyl]-N4-(4-methyl-3-oxo-2H-benzo[1,4]thiazin-6-yl)-2,4-pyrimidinediamine] |
| – | 550 | 162 | Cc1cnc(Nc2cccc(C(N)=O)c2)nc1Nc1ccc2c(c1)N(C)C(=O)C(C)(C)O2 [II-39, N2-(3-Aminocarbonylphenyl)-5-methyl N4-(2,2,4-trimethyl-3-oxo-benz[1,4]oxazin-6-yl)-2,4-pyrimidinediamine] |
| – | 1430 | 116 | Cc1cnc(Nc2cccc(C#N)c2)nc1Nc1ccc2c(c1)N(C)C(=O)CS2 [II-7, N2-(3-Cyanophenyl)-5-methyl-N4-(4-methyl-3-oxo-2H-benzo[1,4]thiazin-6-yl)-2,4-pyrimidinediamine] |
| 75.2 | 489 | – | CNC(=O)COc1cc(Nc2ncc(F)c(Nc3ccc4c(n3)NCC(C)(C)O4)n2)cc(OC)c1OC [II-33, N4-(3,4-Dihydro-2,2-dimethyl-4H-5-pyrido[1,4]oxazin-6-yl)-N2-[3,4-dimethoxy-5-(N-methylaminocarbonylmethoxy)phenyl]-5-fluoro-2,4-pyrimidinediamine] |
| – | 432 | 179 | Cc1cnc(Nc2cccc(C(N)=O)c2)nc1Nc1ccc2c(c1)N(C)C(=O)C(C)(C)S2 [II-45, N2-(3-Aminocarbonylphenyl)-5-methyl-N4-(2,2,4-trimethyl-3-oxo-benz[1,4]thiazin-6-yl)-2,4-pyrimidinediamine] |
| 80.2 | 492 | – | CNC(=O)COc1cccc(Nc2ncc(C)c(Nc3ccc4c(c3)N(C)C(=O)C(F)(F)O4)n2)c1 [II-37, N4-(2,2-Difluoro-4-methyl-3-oxo-4H-benzo[1,4]oxazin-6-yl)-5-methyl-N2-[3-(N-methylaminocarbonylmethyleneoxy)phenyl]-2,4-pyrimidinediamine] |

The remaining lines, values behind:

| Compound | IC50 [1] [nM] | IC50 [2] [nM] | IC50 ([1]; Homo sapiens, Ramos) [nM] |
| --- | --- | --- | --- |
| 5-Methyl-N2-(I-oxo-1,2,3,4-tetrahydroisoquinolin-7-yl)-N4-[3-oxo-2,2,4-trimethyl-5-pyrido[1,4]oxazin-6-yl]-2,4-pyrimidinediamine [IV-3] | 231 | 2150 | – |
| N#CCOc1cccc(Nc2nc(Nc3ccc(C(N)=O)cc3)ncc2F)c1 [Compound I-44, N2-(4-Aminocarbonylphenyl)-N4-(3-cyanomethoxyphenyl)-5-fluoro-2,4-pyrimidinediamine] | – | 567 | 21.7 |
| CN1CCN(C(=O)c2ccc(Nc3ncc(F)c(Nc4ccc(OCC#N)cc4)n3)cc2)CC1 [Compound I-31, N4-(4-Cyanomethoxyphenyl)-5-fluoro-N2-[4-((4-methylpiperazin-1-yl)carbonyl)phenyl]-2,4-pyrimidinediamine] | – | 1260 | 62.3 |
| CN1CCN(c2ccc(Nc3ncc(F)c(Nc4ccc(OCC#N)cc4)n3)cc2C#N)CC1 [Compound I-41, N4-(4-Cyanomethoxyphenyl)-N2-[3-cyano-4-(4-methylpiperazin-1-yl)phenyl]-5-fluoro-2,4-pyrimidinediamine] | – | 388 | 3.4 |
| N2-(3-Aminocabonylphenyl)-N4-(3,4-dihydro-2H-4-methyl-3-oxo-5-pyrido[1,4]oxazin-6-yl)-2,4-pyrimidinediamine [II-42] | 180 | 1640 | – |
| Cc1noc(Cc2ccc(Nc3nc(Nc4ccc(CC#N)cc4)ncc3F)cc2)n1 [Compound I-113, N2-(4-Cyanomethylphenyl)-5-fluoro-N4-[4-((3-methyl-1,2,4-oxadiazol-5-yl)methyl)phenyl]-2,4-pyrimidinediamine] | – | – | 149 |
| N#CCOc1ccc(Nc2nc(Nc3cccc(C(N)=O)c3)ncc2F)cc1 [Compound I-28, N2-(3-Aminocarbonylphenyl)-N4-(4-cyanomethoxyphenyl)-5-fluoro-2,4-pyrimidinediamine] | – | – | 65.1 |
| N2-(4-Cyanomethyl phenyl)-5-fluoro-N4-(5-methoxycarbonylthiophen-2-yl)-2,4-pyrimidinediamine [Compound I-122] | 723 | – | – |
| Cc1cc(Nc2nc(Nc3cccc(C(N)=O)c3)ncc2F)cc(C)c1OCC#N [Compound I-91, N2-(3-Aminocarbonylphenyl)-N4-(4-cyanomethoxy-3,5-dimethylphenyl)-5-fluoro-2,4-pyrimidinediamine] | – | – | 333 |
| Cc1cc(Nc2nc(Nc3ccc(CC#N)cc3)ncc2F)ccc1OC(C)C#N (stereo not shown) [Compound I-94, N4-[4-(1-Cyanoethoxy)-3-methylphenyl]-N2-(4-cyanomethylphenyl)-5-fluoro-2,4-pyrimidinediamine] | – | – | 381 |
